Source: publication PMC13576449, “Small-Molecule Activators of PRMT1: Discovery, SAR Analyses, and Proapoptotic Effects in Pancreatic Cancer Cells” (Journal of Medicinal Chemistry, 2026)

Assays:
Assay type in all cases: biochemical
FLAG-tagged PRMT3 = target: T1, FLAG-tagged PRMT3 (Homo sapiens, UniProt O60678); assay: Fluorescence-based in vitro PRMT assay (F-PRMT assay), PRMT3; conditions: Table S3, 100 µM compound, n≥3; for Experimental result (PRMT3): vs solvent control = 100%
T1 construct: The complete ORFs of human PRMT3 and PRMT6 were inserted; made in house; host or cells: Sf9 insect cells (baculovirus)
Excerpt: (§1) To evaluate the effects of the selected candidate molecules on the catalytic activity of type I enzymes, we employed a quantitative fluorescence-based in vitro PRMT activity (F-PRMT) assay using recombinant FLAG-tagged PRMT proteins expressed and affinity-purified from baculovirus-infected Sf9 cells (SI Figure S1, SI Figure S2A).
(§2) Human cell lines (PaTu8988T, PANC-1) were obtained from ATCC (American Type Culture Collection) and cultured in DMEM supplemented with 10% fetal calf serum (FCS, Gibco/BRL), 1% penicillin/streptomycin at 37 °C and 5% CO2. […] For PRMT1 inhibition, cells were treated with type I PRMT inhibitor MS023 hydrochloride (Biomol). For induction of genotoxic stress, cells were treated with gemcitabine (LC Laboratories). […] The following plasmids were used: pFASTBAC-FLAG-rat PRMT1, pFASTBAC-FLAG-mouse PRMT4, and pGEX-GAR. The complete ORFs of human PRMT3 and PRMT6 were inserted into the pFASTBAC HT-3xFLAG B vector via BamHI/HindIII and BamHI/XhoI sites, respectively.
(§3) For PRMT protein expression in insect cells, recombinant baculovirus (bacmid) was generated using the Bac-to-Bac baculovirus system (Invitrogen). Sf9 cells were transfected with bacmid DNA using X-tremeGENE HP DNA transfection reagent (Sigma-Aldrich) according to the manufacturer's instructions. After 3–5 days, supernatants were collected, filtered, and used to infect Sf9 cells to amplify the virus. After 2 rounds of virus amplification and estimation of the final P3 virus titer, the P3 virus (2–5 μL/10^6 cells) was applied for large-scale infection of 200 × 10^6 Sf9 cells in suspension culture at a density of 1 × 10^6 cells/mL. Cells were harvested 5–6 days post-infection by centrifugation at 500 g for 5 min at room temperature. Protein purification from baculovirus-infected Sf9 cells was performed as previously described. , Cells were lysed in BC buffer (20 mM HEPES pH 7.9, 250 mM NaCl, 10% (v/v) glycerin, 0.4 mM EDTA, 1 mM DTT) containing a protease inhibitor cocktail (Roche) by 3 freeze-thaw cycles. After centrifugation at 11,000 rpm (Sorval SS34 rotor) and 4 °C for 1 h, the supernatant (whole cell protein extract) was incubated with anti-FLAG M2 Affinity Gel (Cytiva) at 4 °C and under agitation for 4 h. Subsequently, beads were washed in BC buffer containing various NaCl concentrations (once in BC with 1 M NaCl, twice in BC with 500 mM NaCl, twice in BC with 250 mM NaCl and twice in BC with 100 mM NaCl). FLAG-tagged proteins were either maintained bead-bound as a 50% (v/v) slurry in BC buffer with 100 mM NaCl and stored at −80 °C or were eluted in the appropriate elution buffer (depending on the subsequent assay) containing 0.25 mg/mL 3xFLAG peptides (Sigma-Aldrich) at 4 °C for 30–45 min. To remove the FLAG-peptides from the eluate, dialysis was performed in elution buffer containing 10% (v/v) glycerol at 4 °C for 4–6 h using Slide-A-Lyzer Dialysis Devices (Thermo Fisher Scientific) according to the manufacturer’s recommendations.
(§4) In the first step, the fluorogenic substrate Nα-Benzoyl-L-arginine-7-amido-4-methylcoumarin (Bz-Arg-AMC, Sigma-Aldrich) undergoes methylation by PRMTs upon the addition of the cofactor SAM. In the second reaction step, trypsin cleaves the nonmethylated substrate, leading to the generation of the 7-amino-4-methylcoumarin product, which can be quantified by subsequent fluorescence measurement (excitation: 355 nm, emission: 460 nm). The first reaction was conducted with bead-bound PRMTs at a total volume of 100 μL. Each condition was performed as a technical triplicate to determine the mean and the standard deviation. […] For the negative controls, SAM was substituted with assay buffer. The incubation was continued at 37 °C and under agitation (1,000 rpm) for a duration of 2 h.

FLAG-tagged PRMT6 = target: T2, FLAG-tagged PRMT6 (Homo sapiens, UniProt Q96LA8); assay: Fluorescence-based in vitro PRMT assay (F-PRMT assay), PRMT6; conditions: Table S3; 100 µM compound, vs solvent control = 100%, n≥3
T2 construct: The complete ORFs of human PRMT3 and PRMT6 were inserted; made in house; host or cells: Sf9 insect cells (baculovirus)
Excerpt: as §1, §2, §3, §4

FLAG-tagged PRMT4 = target: T3, FLAG-tagged PRMT4 (Mus musculus, UniProt Q9WVG6); assay: Fluorescence-based in vitro PRMT assay (F-PRMT assay), PRMT4; conditions: 100 µM compound; for Experimental result (PRMT4): vs solvent control = 100%; for Efficacy ±∆% (PRMT4): mean % difference vs solvent control (100%)
T3 construct: Full-length FLAG-tagged PRMT protein; made in house; host or cells: Sf9 insect cells (baculovirus)
T3 sequence (Q9WVG6 1-608): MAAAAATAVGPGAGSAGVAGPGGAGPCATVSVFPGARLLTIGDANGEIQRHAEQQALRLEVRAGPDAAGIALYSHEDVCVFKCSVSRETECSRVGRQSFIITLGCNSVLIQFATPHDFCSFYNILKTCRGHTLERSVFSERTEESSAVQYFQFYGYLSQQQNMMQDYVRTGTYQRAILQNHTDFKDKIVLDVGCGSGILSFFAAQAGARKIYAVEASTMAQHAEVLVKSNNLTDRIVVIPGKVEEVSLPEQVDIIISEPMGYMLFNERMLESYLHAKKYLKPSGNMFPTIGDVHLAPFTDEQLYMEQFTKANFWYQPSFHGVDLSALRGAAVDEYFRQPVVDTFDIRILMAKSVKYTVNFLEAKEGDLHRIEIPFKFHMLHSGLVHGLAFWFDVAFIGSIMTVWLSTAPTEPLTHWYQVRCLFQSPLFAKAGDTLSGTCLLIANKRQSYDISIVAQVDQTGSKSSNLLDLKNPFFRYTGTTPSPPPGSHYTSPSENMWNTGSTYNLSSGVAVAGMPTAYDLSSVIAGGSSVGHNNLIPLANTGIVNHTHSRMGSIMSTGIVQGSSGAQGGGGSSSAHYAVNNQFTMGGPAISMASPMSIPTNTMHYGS
Excerpt: as §1, §2, §3, §4

FLAG-tagged PRMT1 = target: T4, FLAG-tagged PRMT1 (Rattus norvegicus, UniProt Q63009); assay: Fluorescence-based in vitro PRMT assay (F-PRMT assay), PRMT1; conditions: for Experimental result (PRMT1): vs solvent control = 100%
T4 construct: Full-length FLAG-tagged PRMT protein; made in house; host or cells: Sf9 insect cells (baculovirus)
T4 sequence (Q63009 whole entry): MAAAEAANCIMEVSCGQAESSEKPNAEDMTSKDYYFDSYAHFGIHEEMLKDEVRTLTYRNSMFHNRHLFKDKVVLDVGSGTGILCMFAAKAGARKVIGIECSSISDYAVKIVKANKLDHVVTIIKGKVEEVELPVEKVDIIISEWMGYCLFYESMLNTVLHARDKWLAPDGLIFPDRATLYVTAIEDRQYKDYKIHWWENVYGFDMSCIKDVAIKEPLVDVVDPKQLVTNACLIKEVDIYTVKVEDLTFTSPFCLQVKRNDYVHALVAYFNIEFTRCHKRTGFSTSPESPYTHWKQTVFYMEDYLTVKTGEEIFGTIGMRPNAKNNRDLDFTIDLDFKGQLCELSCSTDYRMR

T2 sequence (Q96LA8 whole entry): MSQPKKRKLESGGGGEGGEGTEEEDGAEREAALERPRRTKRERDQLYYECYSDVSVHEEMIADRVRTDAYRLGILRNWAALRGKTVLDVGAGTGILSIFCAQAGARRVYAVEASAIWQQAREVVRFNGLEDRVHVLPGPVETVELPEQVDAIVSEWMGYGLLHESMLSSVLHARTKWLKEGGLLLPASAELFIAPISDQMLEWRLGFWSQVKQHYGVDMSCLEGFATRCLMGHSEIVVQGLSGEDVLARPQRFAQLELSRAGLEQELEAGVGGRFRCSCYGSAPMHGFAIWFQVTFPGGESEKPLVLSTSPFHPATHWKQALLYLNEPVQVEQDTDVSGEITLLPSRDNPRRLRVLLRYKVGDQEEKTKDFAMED
T1 sequence (O60678 whole entry): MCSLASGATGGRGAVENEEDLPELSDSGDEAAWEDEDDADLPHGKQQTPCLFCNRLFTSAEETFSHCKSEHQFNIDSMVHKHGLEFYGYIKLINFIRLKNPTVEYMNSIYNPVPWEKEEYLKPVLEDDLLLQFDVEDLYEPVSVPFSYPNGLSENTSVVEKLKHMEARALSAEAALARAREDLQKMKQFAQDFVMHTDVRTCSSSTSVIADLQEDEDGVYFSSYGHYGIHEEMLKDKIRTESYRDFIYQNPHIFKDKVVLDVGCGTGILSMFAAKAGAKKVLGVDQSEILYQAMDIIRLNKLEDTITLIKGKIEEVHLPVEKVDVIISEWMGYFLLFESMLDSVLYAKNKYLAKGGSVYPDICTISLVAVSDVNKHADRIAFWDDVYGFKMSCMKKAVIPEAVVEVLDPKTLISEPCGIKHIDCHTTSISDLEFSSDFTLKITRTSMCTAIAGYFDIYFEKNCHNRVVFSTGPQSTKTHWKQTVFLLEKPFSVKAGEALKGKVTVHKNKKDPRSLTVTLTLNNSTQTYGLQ

With `CN(C)Cc1cccc(N/C=C2\C(=O)NC(=O)c3ccccc32)c1` [TR-010] the “Efficacy ±∆% (PRMT3)” value (FLAG-tagged PRMT3; mean % difference vs solvent control (100%)) was “+45%”, the “Experimental result (PRMT6)” value (FLAG-tagged PRMT6) was “n.e. (did not significantly affect the catalytic activity (less than ±6% change or not significant p-value), are marked with n.e. (no effect))” and the “Experimental result (PRMT4)” value (FLAG-tagged PRMT4; Table S3, n≥3) was “n.e. (did not significantly affect the catalytic activity (less than ±6% change or not significant p-value), are marked with n.e. (no effect))”. The activation at 100 µM (FLAG-tagged PRMT1; 100 μM compound, increase over solvent-treated activity, read-out: enhancement (increase) of PRMT1 enzymatic activity) was at least 60% and the “Efficacy ±∆% (PRMT1)” value (FLAG-tagged PRMT1; Table S3, 100 µM compound, mean % difference vs solvent control (100%), n≥3) was “+75%”.
For `CNCCCNCc1ccccc1Br` [Compound K001FT011], the “Experimental result (PRMT4)” value (FLAG-tagged PRMT4; Table S2, n=3, racemates used) was “n.e. (did not significantly affect the catalytic activity of the intended PRMT (less than ±6% change or not significant p-value), are marked with n.e. (no effect))”.
For `O=C1NC(=O)c2ccccc2/C1=C/NCc1ccccc1` [TR-03, (Z)-4-[(Benzylamino)methylene]isoquinoline-1,3(2H,4H)-dione], the “Experimental result (PRMT3)” value (FLAG-tagged PRMT3) was “n.e. (did not significantly affect the catalytic activity (less than ±6% change or not significant p-value), are marked with n.e. (no effect))”, the “Experimental result (PRMT6)” value (FLAG-tagged PRMT6) was “n.e. (did not significantly affect the catalytic activity (less than ±6% change or not significant p-value), are marked with n.e. (no effect))” and the “Experimental result (PRMT4)” value (FLAG-tagged PRMT4; Table S3, n≥3) was “n.e. (did not significantly affect the catalytic activity (less than ±6% change or not significant p-value), are marked with n.e. (no effect))”. For the same compound, the “effect on PRMT1 activity (in words)” value (FLAG-tagged PRMT1; 100 μM compound) was “slight inhibitory effect”.
For `CNC(=O)COc1ccc(NC(=O)[C@@H]2NC[C@@H]3C[C@@H]32)cc1` (racemic) [Compound K400JK006], the “Experimental result (PRMT4)” value (FLAG-tagged PRMT4; Table S2, n=3, racemates used) was “n.e. (did not significantly affect the catalytic activity of the intended PRMT (less than ±6% change or not significant p-value), are marked with n.e. (no effect))”.
For `Cn1ccnc1Cn1c(CCCN)nc2c1CCCC2` [Compound K001FT006], the “Experimental result (PRMT4)” value (FLAG-tagged PRMT4; Table S2, n=3, racemates used) was “n.e. (did not significantly affect the catalytic activity of the intended PRMT (less than ±6% change or not significant p-value), are marked with n.e. (no effect))”.
For `CCS(=O)(=O)Nc1ccc(NC(=O)C23CC(CN2)C3)cc1` [Compound K400JK004], the “Efficacy ±∆% (PRMT4)” value (FLAG-tagged PRMT4; Table S2, n=3) was “+8%”.
For `NCCCNCc1sc2ccccc2c1Cl` [Compound K001FT010], the “Experimental result (PRMT4)” value (FLAG-tagged PRMT4; Table S2, n=3, racemates used) was “n.e. (did not significantly affect the catalytic activity of the intended PRMT (less than ±6% change or not significant p-value), are marked with n.e. (no effect))”.
With `O=C1NC(=O)c2ccccc2/C1=C/Nc1ccccc1` [TR-014, (Z)-4-[(Phenylamino)methylene]isoquinoline-1,3(2H,4H)-dione] the “Experimental result (PRMT3)” value (FLAG-tagged PRMT3) was “n.e. (did not significantly affect the catalytic activity (less than ±6% change or not significant p-value), are marked with n.e. (no effect))”, the “Experimental result (PRMT6)” value (FLAG-tagged PRMT6) was “n.e. (did not significantly affect the catalytic activity (less than ±6% change or not significant p-value), are marked with n.e. (no effect))” and the “Experimental result (PRMT4)” value (FLAG-tagged PRMT4; Table S3, n≥3) was “n.e. (did not significantly affect the catalytic activity (less than ±6% change or not significant p-value), are marked with n.e. (no effect))”. For the same compound, the “effect on PRMT1 activity (in words)” value (FLAG-tagged PRMT1; 100 μM compound) was “no significant effect” and the “Experimental result (PRMT1)” value (FLAG-tagged PRMT1; Table S3, 100 µM compound, n≥3) was “n.e. (did not significantly affect the catalytic activity (less than ±6% change or not significant p-value), are marked with n.e. (no effect))”.
With `CNC(=O)Cn1cc(NC(=O)[C@@H]2CC[C@@H]2N)cn1` (racemic) [Compound K400JK012] the “Experimental result (PRMT4)” value (FLAG-tagged PRMT4; Table S2, n=3, racemates used) was “n.e. (did not significantly affect the catalytic activity of the intended PRMT (less than ±6% change or not significant p-value), are marked with n.e. (no effect))”.
`Cc1ccc([N+](=O)[O-])c(OCCC(=O)Nc2ccc(O)cc2C)c1` [Compound K001JS012] was tested, and the “Experimental result (PRMT4)” value (FLAG-tagged PRMT4; Table S2, n=3, racemates used) was “n.e. (did not significantly affect the catalytic activity of the intended PRMT (less than ±6% change or not significant p-value), are marked with n.e. (no effect))”.
For `OCCNC[C@@H](O)COc1ccccc1` (racemic) [Compound K001JS001], the “Experimental result (PRMT4)” value (FLAG-tagged PRMT4; Table S2, n=3, racemates used) was “n.e. (did not significantly affect the catalytic activity of the intended PRMT (less than ±6% change or not significant p-value), are marked with n.e. (no effect))”.
For `CC1(C(=O)Nc2ccc3nc(CN)[nH]c3c2)CCC1` [Compound K400JK011], the “Efficacy ±∆% (PRMT4)” value (FLAG-tagged PRMT4; Table S2, n=3) was -10%.
In the case of `COc1cccc(CNC(=O)NCc2nc3ccccc3s2)c1` [Compound K001FT008], the “Experimental result (PRMT4)” value (FLAG-tagged PRMT4; Table S2, n=3, racemates used) was “n.e. (did not significantly affect the catalytic activity of the intended PRMT (less than ±6% change or not significant p-value), are marked with n.e. (no effect))”.
In the case of `CCN(CC)Cc1ccc(NS(=O)(=O)c2cc(C)cs2)cc1` [Compound K400JK016], the “Experimental result (PRMT4)” value (FLAG-tagged PRMT4; Table S2, n=3, racemates used) was “n.e. (did not significantly affect the catalytic activity of the intended PRMT (less than ±6% change or not significant p-value), are marked with n.e. (no effect))”.
In the case of `NCCc1cn2cccc(OCc3ccccc3)c2n1` [Compound K001FT005], the “Experimental result (PRMT4)” value (FLAG-tagged PRMT4; Table S2, n=3, racemates used) was “n.e. (did not significantly affect the catalytic activity of the intended PRMT (less than ±6% change or not significant p-value), are marked with n.e. (no effect))”.
`C#CCNCC(=O)Nc1ccc([C@@H]2C[C@H]2N)cc1` (racemic) [Compound K400JK009] was tested, and the “Experimental result (PRMT4)” value (FLAG-tagged PRMT4; Table S2, n=3, racemates used) was “n.e. (did not significantly affect the catalytic activity of the intended PRMT (less than ±6% change or not significant p-value), are marked with n.e. (no effect))”.
With `N=C(N)NCCCc1ccccc1Br` [Compound K001FT004] the “Experimental result (PRMT4)” value (FLAG-tagged PRMT4; Table S2, n=3, racemates used) was “n.e. (did not significantly affect the catalytic activity of the intended PRMT (less than ±6% change or not significant p-value), are marked with n.e. (no effect))”.
With `CO/C=C1/C(=O)NC(=O)c2ccccc21` [TR-02, (E/Z)-4-(Methoxymethylene)isoquinoline-1,3(2H,4H)-dione] the “Experimental result (PRMT4)” value (FLAG-tagged PRMT4; Table S3, n≥3) was “n.e. (did not significantly affect the catalytic activity (less than ±6% change or not significant p-value), are marked with n.e. (no effect))”, the “effect on PRMT1 activity (in words)” value (FLAG-tagged PRMT1; 100 μM compound) was “no significant effect” and the “Experimental result (PRMT1)” value (FLAG-tagged PRMT1; Table S3, 100 µM compound, n≥3) was “n.e. (did not significantly affect the catalytic activity (less than ±6% change or not significant p-value), are marked with n.e. (no effect))”.
